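Where inhibition never reached the appropriate level, the endpoint shown equals the highest concentration tested. Otherwise, values were interpolated linearly from a five-concentration, 48-hour dose response in 96-well plates. GI50 is the concentration that inhibits growth by half.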 The source made the active and inactive calls. Cut-off read from the data, not from the text of the source: active = GI50 up to about 1.1 µM and inactive = higher.
Assays:
Assay in all cases: NCI tumour cell line growth inhibition, 48 h
NCI-H23 = tested on: NCI-H23
DMS-273 = tested on: DMS-273
TK-10 = tested on: TK-10
XF498 = tested on: XF498
RXF 393 = tested on: RXF 393
SF-268 = tested on: SF-268
SK-MEL-28 = tested on: SK-MEL-28
COLO 205 = tested on: COLO 205
DMS-114 = tested on: DMS-114
OVCAR-4 = tested on: OVCAR-4
SN12C = tested on: SN12C
SNB-19 = tested on: SNB-19
OVCAR-8 = tested on: OVCAR-8
A498 = tested on: A498
M19-MEL = tested on: M19-MEL
SK-OV-3 = tested on: SK-OV-3
HOP-92 = tested on: HOP-92
RPMI-8226 = tested on: RPMI-8226
U-251 = tested on: U-251
HOP-18 = tested on: HOP-18
KM-20L2 = tested on: KM-20L2
SNB-75 = tested on: SNB-75
HCC 2998 = tested on: HCC 2998
SR = tested on: SR
HCT-116 = tested on: HCT-116
SK-MEL-5 = tested on: SK-MEL-5
ACHN = tested on: ACHN
SF-539 = tested on: SF-539
LXFL 529 = tested on: LXFL 529
786-0 = tested on: 786-0
HCT-15 = tested on: HCT-15
HL-60 = tested on: HL-60
SW-620 = tested on: SW-620
DLD-1 = tested on: DLD-1
M14 = tested on: M14
UO-31 = tested on: UO-31
NCI-H460 = tested on: NCI-H460
OVCAR-3 = tested on: OVCAR-3
SK-MEL-2 = tested on: SK-MEL-2
A549 = tested on: A549
NCI-H226 = tested on: NCI-H226
CCRF-CEM = tested on: CCRF-CEM
NCI-H522 = tested on: NCI-H522
K562 = tested on: K562
IGROV-1 = tested on: IGROV-1
EKVX = tested on: EKVX
HT-29 = tested on: HT-29
SF-295 = tested on: SF-295
Malme-3M = tested on: Malme-3M
CAKI-1 = tested on: CAKI-1
KM12 = tested on: KM12
MOLT-4 = tested on: MOLT-4
UACC-62 = tested on: UACC-62
UACC-257 = tested on: UACC-257
LOX IMVI = tested on: LOX IMVI
OVCAR-5 = tested on: OVCAR-5
HOP-62 = tested on: HOP-62

CC(C)=CCCc1c(C)ccc2c1C(=O)C(=O)C(C(C)C)=C2
GI50 (NCI-H23): 3.94 µM (inactive) | GI50 (DMS-273): 3.97 µM (inactive) | GI50 (TK-10): 4.41 µM (inactive) | GI50 (XF498): 3.77 µM (inactive) | GI50 (RXF 393): 3.68 µM (inactive) | GI50 (SF-268): 5.71 µM (inactive) | GI50 (SK-MEL-28): 3.87 µM (inactive) | GI50 (COLO 205): 7.24 µM (inactive) | GI50 (DMS-114): 4.2 µM (inactive) | GI50 (OVCAR-4): 3.84 µM (inactive) | GI50 (SN12C): 9.06 µM (inactive) | GI50 (SNB-19): > 22 µM (inactive) | GI50 (OVCAR-8): 3.85 µM (inactive) | GI50 (A498): > 22 µM (inactive) | GI50 (M19-MEL): 3.87 µM (inactive) | GI50 (SK-OV-3): > 22 µM (inactive) | GI50 (HOP-92): 3.26 µM (inactive) | GI50 (RPMI-8226): 0.839 µM (active) | GI50 (U-251): > 22 µM (inactive) | GI50 (HOP-18): 4.02 µM (inactive) | GI50 (KM-20L2): > 22 µM (inactive) | GI50 (SNB-75): 9.62 µM (inactive) | GI50 (HCC 2998): > 22 µM (inactive) | GI50 (SR): 3.5 µM (inactive) | GI50 (HCT-116): 3.57 µM (inactive) | GI50 (SK-MEL-5): 20 µM (inactive) | GI50 (ACHN): 3.8 µM (inactive) | GI50 (SF-539): 4.27 µM (inactive) | GI50 (LXFL 529): 3.62 µM (inactive) | GI50 (786-0): 3.95 µM (inactive) | GI50 (HCT-15): 3.85 µM | GI50 (HL-60): 1.03 µM (active) | GI50 (SW-620): 3.86 µM (inactive) | GI50 (DLD-1): 3.48 µM (inactive) | GI50 (M14): 4.24 µM (inactive) | GI50 (UO-31): 6.98 µM (inactive) | GI50 (NCI-H460): 10.7 µM (inactive) | GI50 (OVCAR-3): 3.76 µM (inactive) | GI50 (SK-MEL-2): 4.1 µM (inactive) | GI50 (A549): > 22 µM (inactive) | GI50 (NCI-H226): > 22 µM (inactive) | GI50 (CCRF-CEM): 0.661 µM (active) | GI50 (NCI-H522): 3.4 µM (inactive) | GI50 (K562): 3.87 µM (inactive) | GI50 (IGROV-1): 9.84 µM (inactive) | GI50 (EKVX): > 22 µM (inactive) | GI50 (HT-29): 7.11 µM (inactive) | GI50 (SF-295): > 22 µM (inactive) | GI50 (Malme-3M): 3.73 µM (inactive) | GI50 (CAKI-1): 4.16 µM (inactive) | GI50 (KM12): > 22 µM (inactive) | GI50 (MOLT-4): 1.36 µM (inactive)

O=C1O[C@H](C(Cl)(Cl)Cl)N2CCCC12 (stereo not given in full)
GI50 (NCI-H23): > 100 µM (inactive) | GI50 (DMS-273): > 100 µM (inactive) | GI50 (TK-10): > 100 µM (inactive) | GI50 (XF498): > 100 µM (inactive) | GI50 (RXF 393): > 100 µM (inactive) | GI50 (SF-268): > 100 µM (inactive) | GI50 (SK-MEL-28): > 100 µM (inactive) | GI50 (COLO 205): > 100 µM (inactive) | GI50 (DMS-114): > 100 µM (inactive) | GI50 (OVCAR-4): > 100 µM (inactive) | GI50 (SN12C): > 100 µM (inactive) | GI50 (SNB-19): > 100 µM (inactive) | GI50 (OVCAR-8): > 100 µM (inactive) | GI50 (A498): > 100 µM (inactive) | GI50 (M19-MEL): > 100 µM (inactive) | GI50 (SK-OV-3): > 100 µM (inactive) | GI50 (HOP-92): > 100 µM (inactive) | GI50 (RPMI-8226): > 100 µM (inactive) | GI50 (U-251): > 100 µM (inactive) | GI50 (HOP-18): 18.5 µM (inactive) | GI50 (KM-20L2): > 100 µM (inactive) | GI50 (SNB-75): > 100 µM (inactive) | GI50 (UACC-62): > 100 µM (inactive) | GI50 (SK-MEL-5): > 100 µM (inactive) | GI50 (ACHN): > 100 µM (inactive) | GI50 (SF-539): > 100 µM (inactive) | GI50 (UACC-257): > 100 µM (inactive) | GI50 (LXFL 529): > 100 µM (inactive) | GI50 (786-0): > 100 µM (inactive) | GI50 (LOX IMVI): > 100 µM (inactive) | GI50 (HCT-15): > 100 µM | GI50 (HL-60): > 100 µM (inactive) | GI50 (SW-620): > 100 µM (inactive) | GI50 (OVCAR-5): > 100 µM (inactive) | GI50 (M14): > 100 µM (inactive) | GI50 (UO-31): > 100 µM (inactive) | GI50 (NCI-H460): > 100 µM (inactive) | GI50 (OVCAR-3): > 100 µM (inactive) | GI50 (SK-MEL-2): > 100 µM (inactive) | GI50 (A549): > 100 µM (inactive) | GI50 (NCI-H226): > 100 µM (inactive) | GI50 (CCRF-CEM): > 100 µM (inactive) | GI50 (NCI-H522): > 100 µM (inactive) | GI50 (K562): > 100 µM (inactive) | GI50 (IGROV-1): > 100 µM (inactive) | GI50 (EKVX): > 100 µM (inactive) | GI50 (HT-29): > 100 µM (inactive) | GI50 (HOP-62): > 100 µM (inactive) | GI50 (SF-295): > 100 µM (inactive) | GI50 (Malme-3M): > 100 µM (inactive) | GI50 (CAKI-1): > 100 µM (inactive) | GI50 (KM12): > 100 µM (inactive) | GI50 (MOLT-4): > 100 µM (inactive)
